From paper PMC4844702, “Selective inhibition of the kinase DYRK1A by targeting its folding process” (Nature Communications, 2016)

What was measured:
Assay in all cases: Kinase panel (Carna)
Type in all cases: biochemical
[1] = biological target: T1, CDC2/CycB1 (Homo sapiens, UniProt P06493)
T1 construct: purchased Carna Biosciences

[2] = biological target: T2, RON (Homo sapiens, UniProt Q04912)
T2 construct: purchased Carna Biosciences
Excerpt: (§1) Detailed information on the assay conditions is available on the website of Carna Biosciences (http://www.carnabio.com).

[3] = biological target: T3, LCK (Homo sapiens, UniProt P06239)
T3 construct: purchased Carna Biosciences
Excerpt: as §1

[4] = biological target: T4, HER4 (Homo sapiens, UniProt Q15303)
T4 construct: purchased Carna Biosciences
Excerpt: as §1

[5] = biological target: T5, MAP2K5_Cascade (Homo sapiens, UniProt Q13163)
T5 construct: purchased Carna Biosciences

[6] = biological target: T6, MARK4 (Homo sapiens, UniProt Q96L34); conditions: 10 µM FINDY
T6 construct: purchased Carna Biosciences
Excerpt: as §1

[7] = biological target: T7, HCK (Homo sapiens, UniProt P08631)
T7 construct: purchased Carna Biosciences
Excerpt: as §1

[8] = biological target: T8, FLT4 (Homo sapiens, UniProt P35916)
T8 construct: purchased Carna Biosciences
Excerpt: as §1

[9] = biological target: T9, MAP3K4_Cascade (Homo sapiens, UniProt Q9Y6R4)
T9 construct: purchased Carna Biosciences
Excerpt: as §1

[10] = biological target: T10, PIM2 (Homo sapiens, UniProt Q9P1W9)
T10 construct: purchased Carna Biosciences
Excerpt: as §1

[11] = biological target: T11, RSK2 (Homo sapiens, UniProt P51812)
T11 construct: purchased Carna Biosciences

[12] = biological target: T12, Erk1 (Homo sapiens, UniProt P27361)
T12 construct: purchased Carna Biosciences
Excerpt: as §1

[13] = biological target: T13, MLK1_Cascade (Homo sapiens, UniProt P80192)
T13 construct: purchased Carna Biosciences
Excerpt: as §1

[14] = biological target: T14, CK1δ (Homo sapiens, UniProt P48730)
T14 construct: purchased Carna Biosciences

[15] = biological target: T15, CK1γ2 (Homo sapiens, UniProt P78368)
T15 construct: purchased Carna Biosciences

[16] = biological target: T16, CK1γ3 (Homo sapiens, UniProt Q9Y6M4)
T16 construct: purchased Carna Biosciences

[17] = biological target: T17, CDK7/CycH/MAT1 (Homo sapiens, UniProt P50613)
T17 construct: purchased Carna Biosciences
Excerpt: as §1

[18] = biological target: T18, JNK1 (Homo sapiens, UniProt P45983)
T18 construct: purchased Carna Biosciences
Excerpt: as §1

[19] = biological target: T19, CK2α2/β (Homo sapiens, UniProt P19784)
T19 construct: purchased Carna Biosciences

[20] = biological target: T20, ITK (Homo sapiens, UniProt Q08881)
T20 construct: purchased Carna Biosciences
Excerpt: as §1

[21] = biological target: T21, TRKC (Homo sapiens, UniProt Q16288)
T21 construct: purchased Carna Biosciences
Excerpt: as §1

[22] = biological target: T22, PKACγ (Homo sapiens, UniProt P22612)
T22 construct: purchased Carna Biosciences

[23] = biological target: T23, MAPKAPK3 (Homo sapiens, UniProt Q16644)
T23 construct: purchased Carna Biosciences

[24] = biological target: T24, MARK3 (Homo sapiens, UniProt P27448)
T24 construct: purchased Carna Biosciences
Excerpt: as §1

[25] = biological target: T25, MINK (Homo sapiens, UniProt Q8N4C8)
T25 construct: purchased Carna Biosciences
Excerpt: as §1

[26] = biological target: T26, CRIK (Homo sapiens, UniProt O14578)
T26 construct: purchased Carna Biosciences

[27] = biological target: T27, MAP2K6_Cascade (Homo sapiens, UniProt P52564)
T27 construct: purchased Carna Biosciences

[28] = biological target: T28, EPHA8 (Homo sapiens, UniProt P29322)
T28 construct: purchased Carna Biosciences
Excerpt: as §1

[29] = biological target: T29, WNK3 (Homo sapiens, UniProt Q9BYP7)
T29 construct: purchased Carna Biosciences
Excerpt: as §1

[30] = biological target: T30, AurB (Homo sapiens, UniProt Q96GD4)
T30 construct: purchased Carna Biosciences
Excerpt: as §1

[31] = biological target: T31, QIK (Homo sapiens, UniProt Q9H0K1)
T31 construct: purchased Carna Biosciences

[32] = biological target: T32, TXK (Homo sapiens, UniProt P42681)
T32 construct: purchased Carna Biosciences
Excerpt: as §1

[33] = biological target: T33, PKACα (Homo sapiens, UniProt P17612)
T33 construct: purchased Carna Biosciences

[34] = biological target: T34, MNK2 (Homo sapiens, UniProt Q9HBH9)
T34 construct: purchased Carna Biosciences

[35] = biological target: T35, FRK (Homo sapiens, UniProt P42685)
T35 construct: purchased Carna Biosciences
Excerpt: as §1

[36] = biological target: T36, IRR (Homo sapiens, UniProt P14616)
T36 construct: purchased Carna Biosciences
Excerpt: as §1

[37] = biological target: T37, ZAP70 (Homo sapiens, UniProt P43403)
T37 construct: purchased Carna Biosciences
Excerpt: as §1

[38] = biological target: T38, TEC (Homo sapiens, UniProt P42680)
T38 construct: purchased Carna Biosciences
Excerpt: as §1

[39] = biological target: T39, JNK2 (Homo sapiens, UniProt P45984)
T39 construct: purchased Carna Biosciences

[40] = biological target: T40, CSK (Homo sapiens, UniProt P41240)
T40 construct: purchased Carna Biosciences
Excerpt: as §1

[41] = biological target: T41, MSK1 (Homo sapiens, UniProt O75582)
T41 construct: purchased Carna Biosciences
Excerpt: as §1

[42] = biological target: T42, IGF1R (Homo sapiens, UniProt P08069)
T42 construct: purchased Carna Biosciences
Excerpt: as §1

[43] = biological target: T43, ARG (Homo sapiens, UniProt P42684)
T43 construct: purchased Carna Biosciences
Excerpt: as §1

[44] = biological target: T44, BLK (Homo sapiens, UniProt P51451)
T44 construct: purchased Carna Biosciences
Excerpt: as §1

T11 sequence (P51812 whole entry): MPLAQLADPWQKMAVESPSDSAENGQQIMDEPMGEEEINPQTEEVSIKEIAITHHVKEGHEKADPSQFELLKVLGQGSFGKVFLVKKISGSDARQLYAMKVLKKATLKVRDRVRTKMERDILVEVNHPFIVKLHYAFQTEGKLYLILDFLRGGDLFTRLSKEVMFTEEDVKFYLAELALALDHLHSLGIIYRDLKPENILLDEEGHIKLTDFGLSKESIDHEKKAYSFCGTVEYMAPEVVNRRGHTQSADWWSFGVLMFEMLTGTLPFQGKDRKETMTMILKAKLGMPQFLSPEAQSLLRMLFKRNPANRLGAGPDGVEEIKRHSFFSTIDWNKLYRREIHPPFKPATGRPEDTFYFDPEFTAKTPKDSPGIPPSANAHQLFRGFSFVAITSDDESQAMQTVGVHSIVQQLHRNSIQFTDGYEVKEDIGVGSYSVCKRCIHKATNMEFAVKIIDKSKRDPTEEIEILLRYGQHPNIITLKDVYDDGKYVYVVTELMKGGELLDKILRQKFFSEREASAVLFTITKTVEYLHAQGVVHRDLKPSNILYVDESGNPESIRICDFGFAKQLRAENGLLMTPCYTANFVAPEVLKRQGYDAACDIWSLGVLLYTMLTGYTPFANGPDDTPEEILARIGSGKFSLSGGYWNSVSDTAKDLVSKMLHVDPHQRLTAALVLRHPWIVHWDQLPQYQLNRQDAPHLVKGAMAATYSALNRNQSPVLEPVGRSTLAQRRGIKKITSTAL
T17 sequence (P50613 whole entry): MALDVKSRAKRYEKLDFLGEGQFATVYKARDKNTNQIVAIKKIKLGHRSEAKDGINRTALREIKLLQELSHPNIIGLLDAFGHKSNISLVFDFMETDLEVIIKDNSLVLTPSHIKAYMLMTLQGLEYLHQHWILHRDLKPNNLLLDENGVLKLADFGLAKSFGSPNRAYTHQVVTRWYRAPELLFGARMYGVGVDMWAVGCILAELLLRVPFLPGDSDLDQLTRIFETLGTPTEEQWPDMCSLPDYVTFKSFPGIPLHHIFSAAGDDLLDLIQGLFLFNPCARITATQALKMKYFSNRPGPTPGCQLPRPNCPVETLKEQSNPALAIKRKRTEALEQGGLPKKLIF
T17 sequence (P51946 whole entry partner): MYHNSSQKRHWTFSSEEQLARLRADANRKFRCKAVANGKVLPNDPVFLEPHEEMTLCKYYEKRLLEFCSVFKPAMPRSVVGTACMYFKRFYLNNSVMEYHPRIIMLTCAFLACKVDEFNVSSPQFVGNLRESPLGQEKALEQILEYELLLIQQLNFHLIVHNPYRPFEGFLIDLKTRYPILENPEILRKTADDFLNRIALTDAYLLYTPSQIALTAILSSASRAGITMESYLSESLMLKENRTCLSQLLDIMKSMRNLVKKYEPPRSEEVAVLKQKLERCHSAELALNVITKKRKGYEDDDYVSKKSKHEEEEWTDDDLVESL
T17 sequence (P51948 whole entry partner): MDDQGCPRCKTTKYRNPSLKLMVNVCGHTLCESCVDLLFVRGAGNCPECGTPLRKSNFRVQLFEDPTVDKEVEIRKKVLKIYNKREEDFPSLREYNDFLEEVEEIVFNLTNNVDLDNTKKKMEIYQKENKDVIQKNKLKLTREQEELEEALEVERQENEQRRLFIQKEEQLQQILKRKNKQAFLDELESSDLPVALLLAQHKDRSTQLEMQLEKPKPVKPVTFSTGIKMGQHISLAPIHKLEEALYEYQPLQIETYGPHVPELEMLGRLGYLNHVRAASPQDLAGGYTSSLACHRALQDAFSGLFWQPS
T29 sequence (Q9BYP7 whole entry): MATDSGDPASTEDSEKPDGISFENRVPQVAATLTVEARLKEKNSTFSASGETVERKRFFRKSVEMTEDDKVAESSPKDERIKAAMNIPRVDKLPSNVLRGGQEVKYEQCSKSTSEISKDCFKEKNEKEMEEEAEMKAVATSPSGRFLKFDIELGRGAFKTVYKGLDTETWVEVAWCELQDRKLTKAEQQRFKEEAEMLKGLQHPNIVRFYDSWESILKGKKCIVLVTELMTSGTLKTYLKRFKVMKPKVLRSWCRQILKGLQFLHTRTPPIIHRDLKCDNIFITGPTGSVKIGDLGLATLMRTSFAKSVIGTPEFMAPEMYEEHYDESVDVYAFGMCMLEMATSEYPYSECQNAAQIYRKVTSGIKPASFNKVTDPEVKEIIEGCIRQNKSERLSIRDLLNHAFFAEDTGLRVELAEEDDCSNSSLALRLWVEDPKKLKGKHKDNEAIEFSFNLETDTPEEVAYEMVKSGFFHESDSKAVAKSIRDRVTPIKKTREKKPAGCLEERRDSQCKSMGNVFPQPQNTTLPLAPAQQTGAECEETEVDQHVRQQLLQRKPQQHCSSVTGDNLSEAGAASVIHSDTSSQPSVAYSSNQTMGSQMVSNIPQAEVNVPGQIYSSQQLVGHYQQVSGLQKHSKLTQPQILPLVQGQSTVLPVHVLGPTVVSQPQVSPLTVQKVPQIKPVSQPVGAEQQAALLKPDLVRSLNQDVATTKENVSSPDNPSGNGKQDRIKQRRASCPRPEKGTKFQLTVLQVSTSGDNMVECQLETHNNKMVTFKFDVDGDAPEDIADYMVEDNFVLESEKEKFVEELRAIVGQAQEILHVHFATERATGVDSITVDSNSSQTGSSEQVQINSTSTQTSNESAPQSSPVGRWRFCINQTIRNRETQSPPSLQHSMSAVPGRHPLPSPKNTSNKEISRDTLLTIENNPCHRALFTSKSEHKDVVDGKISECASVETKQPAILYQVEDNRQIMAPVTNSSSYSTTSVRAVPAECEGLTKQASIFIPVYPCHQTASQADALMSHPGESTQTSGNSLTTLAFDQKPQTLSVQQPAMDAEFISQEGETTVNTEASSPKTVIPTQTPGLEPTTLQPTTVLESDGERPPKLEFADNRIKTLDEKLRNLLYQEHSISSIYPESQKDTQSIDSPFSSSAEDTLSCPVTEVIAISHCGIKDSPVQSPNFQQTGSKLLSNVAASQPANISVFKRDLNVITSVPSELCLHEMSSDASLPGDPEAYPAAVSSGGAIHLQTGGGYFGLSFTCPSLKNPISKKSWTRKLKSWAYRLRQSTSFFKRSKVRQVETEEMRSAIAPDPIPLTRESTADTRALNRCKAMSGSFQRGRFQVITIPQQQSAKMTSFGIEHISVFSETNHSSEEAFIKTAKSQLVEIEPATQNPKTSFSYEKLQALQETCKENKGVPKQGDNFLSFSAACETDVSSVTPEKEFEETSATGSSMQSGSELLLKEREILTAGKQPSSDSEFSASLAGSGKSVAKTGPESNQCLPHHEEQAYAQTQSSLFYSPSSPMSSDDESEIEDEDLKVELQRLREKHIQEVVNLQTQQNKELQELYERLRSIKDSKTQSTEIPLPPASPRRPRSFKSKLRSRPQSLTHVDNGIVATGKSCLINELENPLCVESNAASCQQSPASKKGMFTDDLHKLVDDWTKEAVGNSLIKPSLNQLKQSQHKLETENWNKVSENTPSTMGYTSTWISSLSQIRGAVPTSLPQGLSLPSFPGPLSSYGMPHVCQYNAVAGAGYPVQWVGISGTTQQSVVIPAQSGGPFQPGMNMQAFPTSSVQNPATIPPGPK
T8 sequence (P35916 25-1363): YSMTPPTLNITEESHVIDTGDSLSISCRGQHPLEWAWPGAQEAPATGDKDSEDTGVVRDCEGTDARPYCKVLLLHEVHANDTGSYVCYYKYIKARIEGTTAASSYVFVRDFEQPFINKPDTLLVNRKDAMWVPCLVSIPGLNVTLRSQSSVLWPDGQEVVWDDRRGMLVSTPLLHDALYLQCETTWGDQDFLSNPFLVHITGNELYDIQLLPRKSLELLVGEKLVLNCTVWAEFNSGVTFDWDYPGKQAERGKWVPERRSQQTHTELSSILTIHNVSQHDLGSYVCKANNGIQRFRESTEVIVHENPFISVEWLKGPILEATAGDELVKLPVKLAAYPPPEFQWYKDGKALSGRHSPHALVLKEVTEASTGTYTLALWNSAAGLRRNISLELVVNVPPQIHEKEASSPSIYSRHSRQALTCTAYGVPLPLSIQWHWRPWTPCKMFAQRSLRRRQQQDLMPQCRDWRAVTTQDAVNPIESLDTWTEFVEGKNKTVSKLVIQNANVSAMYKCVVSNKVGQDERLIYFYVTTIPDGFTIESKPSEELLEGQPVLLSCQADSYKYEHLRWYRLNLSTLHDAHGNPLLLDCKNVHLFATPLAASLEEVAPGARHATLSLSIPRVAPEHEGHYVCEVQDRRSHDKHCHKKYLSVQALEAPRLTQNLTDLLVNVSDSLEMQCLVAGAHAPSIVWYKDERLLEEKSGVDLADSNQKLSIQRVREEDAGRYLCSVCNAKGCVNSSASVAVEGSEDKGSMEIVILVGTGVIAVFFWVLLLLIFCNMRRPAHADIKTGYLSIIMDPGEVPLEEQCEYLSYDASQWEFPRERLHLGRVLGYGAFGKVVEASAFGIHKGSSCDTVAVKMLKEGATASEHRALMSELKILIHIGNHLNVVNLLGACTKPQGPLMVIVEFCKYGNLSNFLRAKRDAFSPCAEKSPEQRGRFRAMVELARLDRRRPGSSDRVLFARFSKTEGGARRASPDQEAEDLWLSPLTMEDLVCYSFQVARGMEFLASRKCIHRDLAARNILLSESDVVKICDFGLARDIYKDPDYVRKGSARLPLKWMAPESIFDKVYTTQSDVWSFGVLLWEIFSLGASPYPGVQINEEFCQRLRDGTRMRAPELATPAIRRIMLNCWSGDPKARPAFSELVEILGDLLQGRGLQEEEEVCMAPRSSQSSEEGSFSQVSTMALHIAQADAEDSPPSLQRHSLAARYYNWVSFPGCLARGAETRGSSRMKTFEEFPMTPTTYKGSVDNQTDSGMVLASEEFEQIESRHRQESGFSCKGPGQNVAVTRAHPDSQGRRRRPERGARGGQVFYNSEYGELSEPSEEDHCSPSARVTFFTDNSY

## COc1ccc(/C=C2\SC(=S)NC2=O)cc1C#C[Si](C)(C)C [FINDY]
[1]
  inhibition at 10 µM: 43.4%
[2]
  inhibition at 10 µM: 9.2%
[3]
  inhibition at 10 µM: 7.2%
[4]
  inhibition at 10 µM: -13.4%
[5]
  inhibition at 10 µM: -0.1%
[6]
  inhibition at 10 µM: 79.8%
[7]
  inhibition at 10 µM: 35.3%
[8]
  inhibition at 10 µM: 9.8%
[9]
  inhibition at 10 µM: 39.8%
[10]
  inhibition at 10 µM: 67.4%
[11]
  inhibition at 10 µM: 39.9%
[12]
  inhibition at 10 µM: 33.8%
[13]
  inhibition at 10 µM: 48.7%
[14]
  inhibition at 10 µM: 29.1%
[15]
  inhibition at 10 µM: 27.7%
[16]
  inhibition at 10 µM: 15.9%
[17]
  inhibition at 10 µM: 15.2%
[18]
  inhibition at 10 µM: 1.5%
[19]
  inhibition at 10 µM: 72.5%
[20]
  inhibition at 10 µM: 1.2%
[21]
  inhibition at 10 µM: 11.8%
[22]
  inhibition at 10 µM: 17.8%
[23]
  inhibition at 10 µM: 29.2%
[24]
  inhibition at 10 µM: 50.6%
[25]
  inhibition at 10 µM: 5%
[26]
  inhibition at 10 µM: 1.9%
[27]
  inhibition at 10 µM: 23.5%
[28]
  inhibition at 10 µM: 48.8%
[29]
  inhibition at 10 µM: 18.9%
[30]
  inhibition at 10 µM: 35.7%
[31]
  inhibition at 10 µM: -7.7%
[32]
  inhibition at 10 µM: 23.7%
[33]
  inhibition at 10 µM: 64.7%
[34]
  inhibition at 10 µM: 8.3%
[35]
  inhibition at 10 µM: 8.4%
[36]
  inhibition at 10 µM: 3%
[37]
  inhibition at 10 µM: 12.9%
[38]
  inhibition at 10 µM: 32%
[39]
  inhibition at 10 µM: 0.4%
[40]
  inhibition at 10 µM: 6.7%
[41]
  inhibition at 10 µM: 3.8%
[42]
  inhibition at 10 µM: 2.4%
[43]
  inhibition at 10 µM: 15.2%
[44]
  inhibition at 10 µM: 25.5%
